{
  "source": "patent US20090170813A1",
  "about": "“Hypophosphorous Acid Derivatives and their Therapeutical Applications” (priority 2005, published 2009)",
  "data": [
    {"molecular_target": "T1, rat mGlu4 (Rattus norvegicus, UniProt P31423)", "T1 construct": "expressed in transfected cells; host or cells: HEK293", "T1 sequence (P31423 33-912)": "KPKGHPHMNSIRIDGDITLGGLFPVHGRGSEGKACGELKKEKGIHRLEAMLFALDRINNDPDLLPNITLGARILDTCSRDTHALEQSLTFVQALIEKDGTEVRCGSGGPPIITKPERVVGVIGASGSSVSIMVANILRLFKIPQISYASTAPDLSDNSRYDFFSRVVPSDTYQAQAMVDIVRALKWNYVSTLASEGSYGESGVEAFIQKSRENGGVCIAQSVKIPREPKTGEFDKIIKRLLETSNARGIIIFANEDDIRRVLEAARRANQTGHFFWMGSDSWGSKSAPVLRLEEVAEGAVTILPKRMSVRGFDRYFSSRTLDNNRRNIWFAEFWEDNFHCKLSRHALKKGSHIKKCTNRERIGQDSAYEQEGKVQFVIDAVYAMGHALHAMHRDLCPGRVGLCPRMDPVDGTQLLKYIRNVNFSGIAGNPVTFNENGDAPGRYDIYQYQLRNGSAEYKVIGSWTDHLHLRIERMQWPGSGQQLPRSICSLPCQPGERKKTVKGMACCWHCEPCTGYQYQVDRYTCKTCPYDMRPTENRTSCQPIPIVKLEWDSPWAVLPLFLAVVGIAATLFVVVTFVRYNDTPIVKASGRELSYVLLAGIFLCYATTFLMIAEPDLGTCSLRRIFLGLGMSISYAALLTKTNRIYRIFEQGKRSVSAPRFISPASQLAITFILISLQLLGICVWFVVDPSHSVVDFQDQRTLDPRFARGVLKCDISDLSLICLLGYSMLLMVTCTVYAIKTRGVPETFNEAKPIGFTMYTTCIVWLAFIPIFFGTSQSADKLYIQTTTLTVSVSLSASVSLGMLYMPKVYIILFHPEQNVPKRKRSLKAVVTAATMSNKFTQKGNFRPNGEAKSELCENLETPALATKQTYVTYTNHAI", "test": "Agonist activity, [3H]phosphatidylinositol accumulation in HEK293 cells transfected with rat mGlu4 and Gqi9", "assay_type": "cell-based", "conditions": "Table 2, remark beside EC50", "experimental": "(§1) Agonist activity of the compounds was tested on HEK293 cells transiently transfected with rat mGlu4 expressing plasmid pRKG4 and chimeric G-protein Gqi9 by electroporation, as described by Gomeza, J. et al, Mol. Pharmacol; 1996, 50, 923-930.\n(§2) Cells were plated in 96-well culture plates and labeled overnight with [^3H]myoinositol. The day after, cells were washed three times with Krebs buffer, incubated for 10 min with LiCl 5 mM, and then incubated for 30 min in the absence (basal) or in the presence of the indicated compounds at 1 nM up to 1000 μM. The total amount of [^3H]phosphatidylinositol accumulated in the cells was determined after Dowex purification as previously by Goudet C, et al, Prod. Natl. Acad. Sci. USA 2004, 101, 378-383.\n(§3) The response dosis curves were adjusted by using equatrier y=[(Ymax−ymin)/(1+(x/EC50)^n)]+ymin where EC50 is the concentration necessary for obtaining half of the maximal effect and n is Hill coefficient.", "values": [
      {"smiles": "N[C@@H](CCP(=O)(O)C(O)C1CC1C(=O)O)C(=O)O", "note": "(single isomer, unassigned) [CS159]", "mGlu4 agonist character (partial)": "partial"},
      {"smiles": "N[C@@H](CCP(=O)(O)C1COC(=O)C1)C(=O)O", "note": "(stereo partly drawn) [Compound 36, (3S)-4-[((3-amino-3-carboxy)propyl)(hydroxy)phosphinyl]furanone]", "mGlu4 agonist character (partial)": "partial"}
    ]},
    {"molecular_target": "T1, rat mGlu4", "test": "Agonist activity, [3H]phosphatidylinositol accumulation in HEK293 cells transfected with rat mGlu4 and Gqi9", "assay_type": "cell-based", "conditions": "Table 2; n in brackets; read-out: mGlu4 EC50 μM (n)", "experimental": "as §1, §2, §3", "units": {"EC50": "µM"}, "values": [
      {"smiles": "N[C@@H](CCP(=O)(O)C(O)c1cc([N+](=O)[O-])cc([N+](=O)[O-])c1)C(=O)O", "note": "(stereo partly drawn) [Compound 97, (3S)-3-[(((3-amino-3-carboxy)propyl)(hydroxy)phosphinyl)-hydroxymethyl] 1,5-dinitrobenzene]", "EC50": 0.81},
      {"smiles": "N[C@@H](CCP(=O)(O)C(O)c1c(F)c(F)c(F)c(F)c1F)C(=O)O", "note": "(stereo partly drawn) [Compound 80, (3S)-1-[(((3-amino-3-carboxy)propyl)(hydroxy)phosphinyl)-hydroxymethyl] 2,3,4,5,6-pentafluorobenzene]", "EC50": 5.19},
      {"smiles": "N[C@@H](CCP(=O)(O)CC(=O)O)C(=O)O", "note": "[Compound 26, (3S)-2-[((3-amino-3-carboxy)propyl)(hydroxy)phosphinyl]ethanoic Acid]", "EC50": 3.8},
      {"smiles": "CS(=O)(=O)c1ccc(C(O)P(=O)(O)CC[C@H](N)C(=O)O)cc1", "note": "(stereo partly drawn) [Compound 74, (3S)-4-[(((3-amino-3-carboxy)propyl)(hydroxy)phosphinyl)-hydroxymethyl]methylsulphonylbenzene]", "EC50": "> 100"},
      {"smiles": "N[C@@H](CCP(=O)(O)C(O)C1CC1C(=O)O)C(=O)O", "note": "(single isomer, unassigned) [CS159]", "EC50": 12.9},
      {"smiles": "N[C@@H](CCP(=O)(O)C(O)c1cccc([N+](=O)[O-])c1O)C(=O)O", "note": "(stereo partly drawn) [Compound 78, (3S)-3-[(((3-amino-3-carboxy)propyl)(hydroxy)phosphinyl)-hydroxymethyl] 2-hydroxy-nitrobenzene]", "EC50": 15.2},
      {"smiles": "N[C@@H](CCP(=O)(O)C(O)c1ccc(C(F)(F)F)c([N+](=O)[O-])c1)C(=O)O", "note": "(stereo partly shown) [Compound 38]", "EC50": 0.28},
      {"smiles": "COc1ccc(C(O)P(=O)(O)CC[C@H](N)C(=O)O)cc1[N+](=O)[O-]", "note": "(stereo partly drawn) [Compound 58, (3S)-3-[(((3-amino-3-carboxy)propyl)(hydroxy)phosphinyl)-hydroxymethyl] 3-nitro-4-methoxybenzene]", "EC50": 2.89},
      {"smiles": "N[C@@H](CCP(=O)(O)CC(CC(=O)O)C(=O)O)C(=O)O", "note": "(stereo partly drawn) [Compound 19, (3S)-2-[(((3-amino-3-carboxy)propyl)(hydroxy)phosphinyl)-methyl]butane-1,4-dioic Acid]", "EC50": 28.7},
      {"smiles": "N[C@@H](CCP(=O)(O)C(O)c1ccc(C(F)(F)F)o1)C(=O)O", "note": "(stereo partly drawn) [Compound 88, (3S)-2-[(((3-amino-3-carboxy)propyl)(hydroxy)phosphinyl)-hydroxymethyl] 5-trifluoromethylfuran]", "EC50": 1.98},
      {"smiles": "N[C@@H](CCP(=O)(O)C(O)c1cccc([N+](=O)[O-])c1)C(=O)O", "note": "(stereo partly drawn) [Compound 56, (3S)-3-[(((3-amino-3-carboxy)propyl)(hydroxy)phosphinyl)-hydroxymethyl] 3-nitrobenzene]", "EC50": 0.63},
      {"smiles": "N[C@@H](CCP(=O)(O)C(O)C1CC1C(=O)O)C(=O)O", "note": "(single isomer, unassigned) [CS158]", "EC50": 5.1},
      {"smiles": "N[C@@H](CCP(=O)(O)C(O)c1ccc(N2CCOCC2)c([N+](=O)[O-])c1)C(=O)O", "note": "(stereo partly drawn) [Compound 68, (3S)-3-[(((3-amino-3-carboxy)propyl)(hydroxy)phosphinyl)-hydroxymethyl]-6-morpholino-1-nitro benzene]", "EC50": "> 100"},
      {"smiles": "Cc1ccc(C(O)P(=O)(O)CC[C@H](N)C(=O)O)cc1[N+](=O)[O-]", "note": "(stereo partly shown) [Compound 52]", "EC50": 1.69},
      {"smiles": "NC(CCP(=O)(O)C(CC(=O)O)C(=O)O)C(=O)O", "note": "(stereo not shown) [Compound 11]", "EC50": 59},
      {"smiles": "N[C@@H](CCP(=O)(O)C(O)c1ccc([N+](=O)[O-])s1)C(=O)O", "note": "(stereo partly drawn) [Compound 86, (3S)-2-[(((3-amino-3-carboxy)propyl)(hydroxy)phosphinyl)-hydroxymethyl] 5-nitrothiophene]", "EC50": 0.31},
      {"smiles": "N[C@@H](CCP(=O)(O)C(O)c1ccc(O)c([N+](=O)[O-])c1)C(=O)O", "note": "(stereo partly drawn) [Compound 62, (3S)-3-[(((3-amino-3-carboxy)propyl)(hydroxy)phosphinyl)-hydroxymethyl]-6-hydroxy-1-nitrobenzene]", "EC50": 2},
      {"smiles": "N[C@@H](CCP(=O)(O)C(O)c1ccc([N+](=O)[O-])o1)C(=O)O", "note": "(stereo partly drawn) [Compound 84, (3S)-2-[(((3-amino-3-carboxy)propyl)(hydroxy)phosphinyl)-hydroxymethyl] 5-nitrofuran]", "EC50": 0.087},
      {"smiles": "N[C@@H](CCP(=O)(O)C(O)c1cccc(C(=O)O)c1)C(=O)O", "note": "(stereo partly drawn) [Compound 24, (3S)-3-[(((3-amino-3-carboxy)propyl)(hydroxy)phosphinyl)-hydroxymethyl]benzoic Acid]", "EC50": 20.8},
      {"smiles": "COc1cc(C(O)P(=O)(O)CC[C@H](N)C(=O)O)cc([N+](=O)[O-])c1O", "note": "(stereo partly drawn) [Compound 64, (3S)-3-[(((3-amino-3-carboxy)propyl)(hydroxy)phosphinyl)-hydroxymethyl]-5-methoxy-6-hydroxy-1-nitrobenzene]", "EC50": 1.5},
      {"smiles": "N[C@@H](CCP(=O)(O)CCC(=O)O)C(=O)O", "note": "[Compound 7, (3S)-3-[((3-Amino-3-carboxy)propyl)(hydroxy)phosphinyl]propanoic Acid]", "EC50": 6.4},
      {"smiles": "N[C@@H](CCP(=O)(O)C(O)c1ccc([N+](=O)[O-])cc1[N+](=O)[O-])C(=O)O", "note": "(stereo partly drawn) [Compound 70, (3S)-4-[(((3-amino-3-carboy)propyl)(hydroxy)phosphinyl)-hydroxymethyl]-1,3-dinitrobenzene]", "EC50": 1},
      {"smiles": "N[C@@H](CCP(=O)(O)C(O)c1ccc(Cl)c([N+](=O)[O-])c1)C(=O)O", "note": "(stereo partly drawn) [Compound 66, (3S)-3-[(((3-amino-3-carboxy)propyl)(hydroxy)phosphinyl)-hydroxymethyl]-6-chloro-1-nitrobenzene]", "EC50": 2.74},
      {"smiles": "N[C@@H](CCP(=O)(O)C(O)c1ccc(F)c([N+](=O)[O-])c1)C(=O)O", "note": "(stereo partly shown) [Compound 50]", "EC50": 1.02},
      {"smiles": "N[C@@H](CCP(=O)(O)C(O)c1cc([N+](=O)[O-])cc([N+](=O)[O-])c1O)C(=O)O", "note": "(stereo partly drawn) [Compound 76, (3S)-3-[(((3-amino-3-carboxy)propyl)(hydroxy)phosphinyl)-hydroxymethyl] 2-hydroxy-1,5-dinitrobenzene]", "EC50": 2.3},
      {"smiles": "N[C@@H](CCP(=O)(O)C(O)c1ccc([N+](=O)[O-])c(C(F)(F)F)c1)C(=O)O", "note": "(stereo partly drawn) [Compound 94, (3S)-4-[(((3-amino-3-carboxy)propyl)(hydroxy)phosphinyl)-hydroxymethyl] 2-trifluoro methyl-1-nitrobenzene]", "EC50": 0.305},
      {"smiles": "N[C@@H](CCP(=O)(O)C(O)c1ccc([N+](=O)[O-])cc1)C(=O)O", "note": "(stereo partly drawn) [Compound 72, (3S)-4-[(((3-amino-3-carboxy)propyl)(hydroxy)phosphinyl)-hydroxymethyl] nitrobenzene]", "EC50": 0.93},
      {"smiles": "N[C@@H](CCP(=O)(O)C(O)c1ccc(C(F)(F)F)cc1)C(=O)O", "note": "(stereo partly shown) [Compound 54]", "EC50": 22.2},
      {"smiles": "N[C@@H](CCP(=O)(O)C(O)c1cc([N+](=O)[O-])ccc1O)C(=O)O", "note": "(stereo partly drawn) [Compound 82, (3S)-3-[(((3-amino-3-carboxy)propyl)(hydroxy)phosphinyl)-hydroxymethyl] 4-hydroxy-nitrobenzene]", "EC50": 1.17},
      {"smiles": "N[C@@H](CCP(=O)(O)C(O)c1c([N+](=O)[O-])cccc1[N+](=O)[O-])C(=O)O", "note": "(stereo partly drawn) [Compound 90, (3S)-2-[(((3-amino-3-carboxy)propyl)(hydroxy)phosphinyl)-hydroxymethyl] 1,3-dinitro benzene]", "EC50": 1.96},
      {"smiles": "N[C@@H](CCP(=O)(O)C1COC(=O)C1)C(=O)O", "note": "(stereo partly drawn) [Compound 36, (3S)-4-[((3-amino-3-carboxy)propyl)(hydroxy)phosphinyl]furanone]", "EC50": 11.5}
    ]},
    {"molecular_target": "T1, rat mGlu4", "test": "Agonist activity, [3H]phosphatidylinositol accumulation in HEK293 cells transfected with rat mGlu4 and Gqi9", "assay_type": "cell-based", "conditions": "at 100 μM", "experimental": "as §1, §2, §3", "values": [
      {"smiles": "N[C@@H](CCP(=O)(O)CCP(=O)(O)O)C(=O)O", "note": "[Compound 42, (3S)-3-[((3-Amino-3-carboxy)propyl)(hydroxy)phosphinyl]ethylphosphonate]", "mGlu4 % max at 100 μM": "40% max at 100 μM (1)"},
      {"smiles": "N[C@@H](CCP(=O)(O)C(CC(=O)O)CC(=O)O)C(=O)O", "note": "[Compound 16, (3S)-3-[(((3-amino-3-carboxy)propyl)(hydroxy)phosphinyl)-methyl]pentane-1,5-dioic Acid]", "mGlu4 % max at 100 μM": "10% max at 100 μM (1)"},
      {"smiles": "N[C@@H](CCP(=O)(O)C(O)c1ccccc1C(=O)O)C(=O)O", "note": "(stereo partly drawn) [Compound 22, (3S)-2-[(((3-amino-3-carboxy)propyl)(hydroxy)phosphinyl)-hydroxymethyl]benzoic Acid]", "mGlu4 activity at 100 μM": "inactive at 100 μM"},
      {"smiles": "N[C@@H](CCP(=O)(O)CCCC(=O)O)C(=O)O", "note": "[Compound 48, (3S)-4-[((3-Amino-3-carboxy)propyl)(hydroxy)phosphinyl]butanoic Acid]", "mGlu4 % max at 100 μM": "80% max at 100 μM (1)"},
      {"smiles": "N[C@@H](CCP(=O)(O)C(CC(=O)O)CP(=O)(O)O)C(=O)O", "note": "(stereo partly shown) [Compound 44]", "mGlu4 % max at 100 μM": "33% max at 100 μM (1)"},
      {"smiles": "NC(CP(=O)(O)CCC(=O)O)C(=O)O", "note": "(stereo not shown) [Compound 14]", "mGlu4 activity at 100 μM": "inactive at 100 μM (1) . . ."},
      {"smiles": "C/C(=C\\C(=O)O)C(O)P(=O)(O)CC[C@H](N)C(=O)O", "note": "(stereo partly drawn) [Compound 31, (3S)-4-[((3-amino-3-carboxy)propyl)(hydroxy)phosphinyl]-4-hydroxy-3-methyl-2-butenoic Acid]", "mGlu4 activity at 100 μM": "inactive at 100 μM (1)"},
      {"smiles": "N[C@@H](CCP(=O)(O)C(CC(=O)O)C(F)(F)F)C(=O)O", "note": "(stereo partly drawn) [Compound 28, (3S)-3-[((3-amino-3-carboxy)propyl)(hydroxy)phosphinyl]-3-trifluoromethylpropanoic Acid]", "mGlu4 % max at 100 μM": "60% max at 100 μM (1)"},
      {"smiles": "NC(CCP(=O)(O)CCCCC(=O)O)C(=O)O", "note": "(stereo not shown) [Compound 60, 5-[((3-Amino-3-carboxy)propyl)(hydroxy)phosphinyl]pentanoic Acid]", "mGlu4 activity at 100 μM": "inactive at 100 μM (1)"},
      {"smiles": "N[C@@H](CCP(=O)(O)Cc1cccc(C(=O)O)c1)C(=O)O", "note": "[Compound 46, (3S)-3-[(((3-amino-3-carboxy)propyl)(hydroxy)phosphinyl)-methyl]benzoic Acid]", "mGlu4 % max at 100 μM": "33% max at 100 μM (1)"}
    ]}
  ]
}
